This passage reports IC50 results from US7285555B2, “6-aryl-7-halo-imidazo[1,2-a]pyrimidines as anticancer agents” (Wyeth Holdings Corporation, priority 2003, dated 2007).

Each structure is given as a SMILES string.

The test system of one experiment is COLO 205 cells. As to the kind of experiment: MTS cytotoxicity test procedure with COLO 205 cells. The format is cell-based. As to conditions: Homo sapiens, 72 h, MTS assay, three days of culture. As for the experimental part: The MTS assay, which is sold in kit form by Promega (Madison, Wis.; CellTiter 96 AQueous Non-Radioactive Cell Proliferation Assay), is based on the conversion by viable cells, but not by dead cells, of the tetrazolium salt, MTS (3-(4,5-dimethylthiazol-2-yl)-5-(3-carboxymethoxyphenyl)-2-(4-sulphophenyl)-2H-tetrazolium, inner salt), into a water-soluble colored formazan which is detected by spectrophotometry. Compounds are tested at nine concentrations, in order to determine IC50 values. For the test procedure, cells are harvested by trypsinization (or, in the case of non-adherent cells, by simple resuspension), washed, counted and distributed to wells of 96-well flat-bottom microtiter plates at 1000 cells per well in 200 μL of medium. In addition, one row of wells on a separate plate receives cells as above (“time 0” plate). All plates are incubated at 370 in humidified 5% CO2 in air for about 24 hr.
On day 2, compounds for test are diluted and added to wells. Compounds are dissolved in DMSO at 10 mg/mL. For each compound, nine serial 2-fold dilutions are prepared in DMSO. Ten μL of each dilution in DMSO is transferred to 100 μL of medium, mixed well, and then 5 μL of this dilution is transferred in quadruplicate to wells containing cells. The final high concentration of each compound is typically 1-5 μM. Plates are returned to the incubator for three days. At the time of drug addition to the experimental plates, the MTS assay is run on the “time 0” plate. This gives the “time 0 MTS value” which is related to the number of viable cells per well at the time of drug addition.
After three days of culture with test compounds (day 5 overall), the MTS assay is done on all wells of the experimental plates. The absorbance values of the quadruplicate sample wells are averaged and divided by the average of the “time 0” values. The average of control wells without drug, divided by the average “time 0” value, gives the maximal relative increase in MTS color yield due to cell growth during the final three days of culture. The average of control wells with high drug concentration, divided by the “time 0” value, gives the minimal relative color yield for cells that were completely killed. The nine values for each compound are plotted against concentration, and the concentration that produces a relative color yield half way between the maximum and minimum is taken as the IC50 value.
COLO 205 is a human colon carcinoma cell line that is used for comparative testing of the examples of this invention and several reference compounds (Table 1). This line is sensitive to paclitaxel and vincristine.
(In general: Tetrazolium dyes change colour on reduction, which living cells bring about.)

The test system of another experiment is HL-60 cells. Kind of experiment: MTS cytotoxicity test procedure with HL-60 cells. The format is cell-based. Conditions: Homo sapiens, MTS assay, means of 2 independent experiments. The text has this: Human cancer cell lines, unless otherwise noted, are obtained from the American Type Culture Collection (Rockville, Md.). […]
The MTS assay, which is sold in kit form by Promega (Madison, Wis.; CellTiter 96 AQueous Non-Radioactive Cell Proliferation Assay), is based on the conversion by viable cells, but not by dead cells, of the tetrazolium salt, MTS (3-(4,5-dimethylthiazol-2-yl)-5-(3-carboxymethoxyphenyl)-2-(4-sulphophenyl)-2H-tetrazolium, inner salt), into a water-soluble colored formazan which is detected by spectrophotometry. […] For the test procedure, cells are harvested by trypsinization (or, in the case of non-adherent cells, by simple resuspension), washed, counted and distributed to wells of 96-well flat-bottom microtiter plates at 1000 cells per well in 200 μL of medium. […]
After three days of culture with test compounds (day 5 overall), the MTS assay is done on all wells of the experimental plates. The absorbance values of the quadruplicate sample wells are averaged and divided by the average of the “time 0” values. […]

As to `CN(C)CCCOc1cc(F)c(-c2c(Cl)nc3nccn3c2C2CCCCCC2)c(F)c1` [Example 6, 3-[4-(7-Chloro-5-cycloheptylimidazo[1,2-a]pyrimidin-6-yl)-3,5-difluorophenoxy]-N,N-dimethylpropan-1-amine], the figures for the IC50 in the experiment with COLO 205 cells and with HL-60 cells were 45 nM and 53 nM, respectively.
